Results reported in patent publication US8362017B2, “C-kit modulators and methods of use” (Exelixis, Inc., priority 2003, dated 2013).

The molecules below were run against c-Kit kinase (Homo sapiens, UniProt P10721) (assay: c-Kit biochemical activity assay (AlphaScreen)). Details: biotinylated poly(Glu, Tyr) substrate, 1 hr at ambient temperature.
Procedure: Kinase activity and compound inhibition are investigated using one or more of the three assay formats described below. The ATP concentrations for each assay are selected to be close to the Michaelis-Menten constant (KM) for each individual kinase. Dose-response experiments are performed at 10 different inhibitor concentrations in a 384-well plate format. The data are fitted to four-parameter equation (2) below; where Y is the observed signal, X is the inhibitor concentration, Min is the background signal in the absence of enzyme (0% enzyme activity), Max is the signal in the absence of inhibitor (100% enzyme activity), IC50 is the inhibitor concentration at 50% enzyme inhibition and H represents the empirical Hill's slope to measure the cooperativity. Typically H is close to unity. Y=Min+(Max−Min)/(1+(X/IC50)^H) Equation (2) c-Kit Assay
c-Kit biochemical activity was assessed using AlphaScreen™ (Perldn Elmer) technology, described above. Test compounds, ATP, biotinylated poly(Glu, Tyr) and c-Kit kinase were combined in a volume of 20 μL in a 384-well white, medium binding microtiter plate (Greiner). Reaction mixtures were incubated for 1 hr at ambient temperature. Reactions were quenched by addition of 10 μL of 15-30 mg/mL AlphaScreen bead suspension containing 75 mM Hepes, pH 7.4, 300 mM NaCl, 120 mM EDTA, 0.3% BSA and 0.03% Tween-20. After 16 hr incubation at ambient temperature plates were read using an AlphaQuest reader (Perkin Elmer).

c-Kit kinase, sequence (P10721 26-976): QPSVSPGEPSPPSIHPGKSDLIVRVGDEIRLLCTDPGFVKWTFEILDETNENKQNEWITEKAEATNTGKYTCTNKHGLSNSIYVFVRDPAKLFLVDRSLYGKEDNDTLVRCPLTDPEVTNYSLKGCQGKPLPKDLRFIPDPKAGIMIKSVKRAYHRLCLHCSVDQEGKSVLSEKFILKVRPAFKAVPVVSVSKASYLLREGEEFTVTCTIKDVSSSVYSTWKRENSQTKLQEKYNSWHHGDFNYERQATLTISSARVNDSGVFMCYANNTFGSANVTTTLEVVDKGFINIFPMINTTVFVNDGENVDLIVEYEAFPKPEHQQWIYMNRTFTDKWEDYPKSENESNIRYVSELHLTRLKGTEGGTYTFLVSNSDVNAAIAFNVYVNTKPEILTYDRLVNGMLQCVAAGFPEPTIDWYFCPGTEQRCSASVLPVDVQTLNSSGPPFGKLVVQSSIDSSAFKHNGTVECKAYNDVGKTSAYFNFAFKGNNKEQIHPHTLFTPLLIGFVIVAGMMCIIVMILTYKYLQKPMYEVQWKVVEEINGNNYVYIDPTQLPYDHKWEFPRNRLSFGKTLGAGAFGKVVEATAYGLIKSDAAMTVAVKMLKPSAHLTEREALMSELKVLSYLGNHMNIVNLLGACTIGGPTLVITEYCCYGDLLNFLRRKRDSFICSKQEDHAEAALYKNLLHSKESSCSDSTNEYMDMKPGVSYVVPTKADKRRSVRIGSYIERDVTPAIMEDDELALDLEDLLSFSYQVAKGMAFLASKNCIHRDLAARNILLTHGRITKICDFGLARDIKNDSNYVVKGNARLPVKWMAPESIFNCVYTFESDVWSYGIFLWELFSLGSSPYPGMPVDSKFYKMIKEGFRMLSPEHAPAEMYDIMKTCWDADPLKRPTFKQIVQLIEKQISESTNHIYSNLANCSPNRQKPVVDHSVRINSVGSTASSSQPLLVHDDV

`Cc1nnnn1-c1cccc(OCC(=O)Nc2ccc(Cl)c(C(F)(F)F)c2)c1` [Example 5, N-[4-chloro-3-(trifluoromethyl)phenyl]-2-{[3-(5-methyl-1H-tetrazol-1-yl)phenyl]oxy}acetamide] and `COC(=O)c1cn(-c2cccc(OCC(=O)Nc3ccc(Cl)c(C(F)(F)F)c3)c2)nn1` [Example 29, methyl 1-{3-[(2-{[4-chloro-3-(trifluoromethyl)phenyl]amino}-2-oxoethyl)oxy]phenyl}-1H-1,2,3-triazole-4-carboxylate] fall in the same range of IC50: 500 to 5000 nM for the first, 500 to 5000 nM for the second.

First: O=C(COc1ccc(-c2cncnc2)cc1)Nc1ccc(Cl)c(C(F)(F)F)c1 [Example 7, N-[4-chloro-3-(trifluoromethyl)phenyl]-2-[(4-pyrimidin-5-ylphenyl)oxy]acetamide]
Second: O=C(NCc1ccc(-c2cn[nH]c2)cc1)Nc1ccc(Cl)c(C(F)(F)F)c1 [Example 248, N-[4-chloro-3-(trifluoromethyl)phenyl]-N′-{[4-(1H-pyrazol-4-yl)phenyl]methyl}urea]
The IC50 of the first is lower: 50 to 500 nM for the first, 500 to 5000 nM for the second. The first is the more potent here.

`O=C(NCc1cccc(-c2ccc3nccnc3c2)c1)Nc1ccc(Cl)c(C(F)(F)F)c1` [Example 11, 1-(4-Chloro-3-trifluoromethyl-phenyl)-3-(3-quinoxalin-6-yl-benzyl)urea] and `O=C(NCc1cccc(-c2cccnc2Cl)c1)Nc1ccc(Cl)c(C(F)(F)F)c1` [Example 251, N-{[3-(2-chloropyridin-3-yl)phenyl]methyl}-N′-[4-chloro-3-(trifluoromethyl)phenyl]urea] fall in the same range of IC50: 50 to 500 nM for the first, 50 to 500 nM for the second.

First: O=C(NC(=O)c1cccc(-n2cnnn2)c1)Nc1ccc(Cl)c(C(F)(F)F)c1 [Example 13, 1-(4-chloro-3-trifluoromethyl-phenyl)-3-(3-tetrazol-1-yl-benzoyl)-urea]
Second: Cc1ccc(-n2cnnn2)cc1OCC(=O)Nc1ccc(Cl)c(C(F)(F)F)c1 [Example 18, N-[4-chloro-3-(trifluoromethyl)phenyl]-2-{[2-methyl-5-(1H-tetrazol-1-yl)phenyl]oxy}acetamide]
The IC50 of the first is lower: 500 to 5000 nM for the first, greater than 5000 nM for the second.

`COc1ccc(Cl)cc1NC(=O)OCc1cccc(-c2cccnc2)c1` [Example 234, (3-pyridin-3-ylphenyl)methyl [5-chloro-2-(methyloxy)phenyl]carbamate] and `COc1ccc(Cl)cc1NC(=O)OCc1cccc(-c2cncnc2)c1` [Example 236, (3-pyrimidin-5-ylphenyl)methyl [5-chloro-2-(methyloxy)phenyl]carbamate] fall in the same range of IC50: 500 to 5000 nM for the first, 500 to 5000 nM for the second.

Compared with `O=C(Nc1ccc(Cl)c(C(F)(F)F)c1)OCc1ccc(-n2cnnn2)cc1` [Example 235, [4-(1H-tetrazol-1-yl)phenyl]methyl [4-chloro-3-(trifluoromethyl)phenyl]carbamate], `O=C(Nc1cccc(C(F)(F)F)c1)OCc1cccc(-n2cnnn2)c1` [Example 255, [3-(1H-tetrazol-1-yl)phenyl]methyl [3-(trifluoromethyl)phenyl]carbamate] is lower in IC50: 500 to 5000 nM for the first, 50 to 500 nM for the second.

Compared with `Cc1ccc(NC(=O)OCc2ccc(-c3cncnc3)cc2)cc1C` [Example 237, (4-pyrimidin-5-ylphenyl)methyl (3,4-dimethylphenyl)carbamate], `Cc1ccc(NC(=O)OCc2cccc(-c3cccnc3)c2)cc1C` [Example 238, (3-pyridin-3-ylphenyl)methyl (3,4-dimethylphenyl)carbamate] is lower in IC50: 500 to 5000 nM for the first, 50 to 500 nM for the second.

`CC(C)(C)OC(=O)N1CCCC(NC(=O)c2nc(-c3cccc(CNC(=O)Nc4ccc(Cl)c(C(F)(F)F)c4)c3)cnc2N)C1` (stereo not drawn) [Example 239, 1,1-dimethylethyl 3-({[3-amino-6-(3-{[({[4-chloro-3-(trifluoromethyl)phenyl]amino}carbonyl)amino]methyl}phenyl)pyrazin-2-yl]carbonyl}amino)piperidine-1-carboxylate] and `CC(C)(C)OC(=O)N1CCCC(NC(=O)c2nc(-c3ccc(CNC(=O)Nc4ccc(Cl)c(C(F)(F)F)c4)cc3)cnc2N)C1` (stereo not drawn) [Example 240, 1,1-dimethylethyl 3-({[3-amino-6-(4-{[({[4-chloro-3-(trifluoromethyl)phenyl]amino}carbonyl)amino]methyl}phenyl)pyrazin-2-yl]carbonyl}amino)piperidine-1-carboxylate] fall in the same range of IC50: 500 to 5000 nM for the first, 500 to 5000 nM for the second.

`Nc1ncc(-c2cccc(CNC(=O)Nc3ccc(Cl)c(C(F)(F)F)c3)c2)nc1C(=O)NC1CCCNC1` (stereo not drawn) [Example 241, 3-amino-6-(3-{[({[4-chloro-3-(trifluoromethyl)phenyl]amino}carbonyl)amino]methyl}phenyl)-N-piperidin-3-ylpyrazine-2-carboxamide] and `Nc1ncc(-c2ccc(CNC(=O)Nc3ccc(Cl)c(C(F)(F)F)c3)cc2)nc1C(=O)NC1CCCNC1` (stereo not drawn) [Example 242, 3-amino-6-(4-{[({[4-chloro-3-(trifluoromethyl)phenyl]amino}carbonyl)amino]methyl}phenyl)-N-piperidin-3-ylpyrazine-2-carboxamide] fall in the same range of IC50: 50 to 500 nM for the first, 50 to 500 nM for the second.

`CC(C)(C)OC(=O)N1CCN(C(=O)c2nc(-c3cccc(CNC(=O)Nc4ccc(Cl)c(C(F)(F)F)c4)c3)cnc2N)CC1` [Example 243, 1,1-dimethylethyl 4-{[3-amino-6-(3-{[({[4-chloro-3-(trifluoromethyl)phenyl]amino}carbonyl)amino]methyl}phenyl)pyrazin-2-yl]carbonyl}piperazine-1-carboxylate] and `CC(C)(C)OC(=O)N1CCN(C(=O)c2nc(-c3ccc(CNC(=O)Nc4ccc(Cl)c(C(F)(F)F)c4)cc3)cnc2N)CC1` [Example 244, 1,1-dimethylethyl 4-{[3-amino-6-(4-{[({[4-chloro-3-(trifluoromethyl)phenyl]amino}carbonyl)amino]methyl}phenyl)pyrazin-2-yl]carbonyl}piperazine-1-carboxylate] fall in the same range of IC50: 500 to 5000 nM for the first, 500 to 5000 nM for the second.

`Nc1ncc(-c2cccc(CNC(=O)Nc3ccc(Cl)c(C(F)(F)F)c3)c2)nc1C(=O)N1CCNCC1` [Example 245, N-({3-[5-amino-6-(piperazin-1-ylcarbonyl)pyrazin-2-yl]phenyl}methyl)-N′-[4-chloro-3-(trifluoromethyl)phenyl]urea] and `Nc1ncc(-c2ccc(CNC(=O)Nc3ccc(Cl)c(C(F)(F)F)c3)cc2)nc1C(=O)N1CCNCC1` [Example 246, N-({4-[5-amino-6-(piperazin-1-ylcarbonyl)pyrazin-2-yl]phenyl}methyl)-N′-[4-chloro-3-(trifluoromethyl)phenyl]urea] fall in the same range of IC50: 500 to 5000 nM for the first, 500 to 5000 nM for the second.

Compared with `O=C(NCc1cccc(-c2cn[nH]c2)c1)Nc1ccc(Cl)c(C(F)(F)F)c1` [Example 247, N-[4-chloro-3-(trifluoromethyl)phenyl]-N′-{[3-(1H-pyrazol-4-yl)phenyl]methyl}urea], `CSc1ccc(-c2cccc(CNC(=O)Nc3ccc(Cl)c(C(F)(F)F)c3)c2)nc1` [Example 258, N-[4-chloro-3-(trifluoromethyl)phenyl]-N′-({3-[5-(methylthio)pyridin-2-yl]phenyl}methyl)urea] is higher in IC50: 50 to 500 nM for the first, 500 to 5000 nM for the second. The first is the more potent here.

`O=C(Nc1ccc(Cl)c(C(F)(F)F)c1)OCc1cccc(-c2cnc(N3CCNCC3)nc2)c1` [Example 249, [3-(2-piperazin-1-ylpyrimidin-5-yl)phenyl]methyl [4-chloro-3-(trifluoromethyl)phenyl]carbamate] and `O=C(Nc1ccc(Cl)c(C(F)(F)F)c1)OCc1ccc(-c2cnc(N3CCNCC3)nc2)cc1` [Example 250, [4-(2-piperazin-1-ylpyrimidin-5-yl)phenyl]methyl [4-chloro-3-(trifluoromethyl)phenyl]carbamate] fall in the same range of IC50: 500 to 5000 nM for the first, 500 to 5000 nM for the second.

`O=C(NCc1ccc(-c2cccnc2Cl)cc1)Nc1ccc(Cl)c(C(F)(F)F)c1` [Example 252, N-{[4-(2-chloropyridin-3-yl)phenyl]methyl}-N′-[4-chloro-3-(trifluoromethyl)phenyl]urea] and `O=C(NCc1ccc(-c2cccnc2F)cc1)Nc1ccc(Cl)c(C(F)(F)F)c1` [Example 254, N-[4-chloro-3-(trifluoromethyl)phenyl]-N′-{[4-(2-fluoropyridin-3-yl)phenyl]methyl}urea] fall in the same range of IC50: 500 to 5000 nM for the first, 500 to 5000 nM for the second.

`O=C(NCc1cccc(-c2cccnc2F)c1)Nc1ccc(Cl)c(C(F)(F)F)c1` [Example 253, N-[4-chloro-3-(trifluoromethyl)phenyl]-N′-{[3-(2-fluoropyridin-3-yl)phenyl]methyl}urea] and `Cc1ccc(-c2cccc(COC(=O)Nc3ccc(Cl)c(C(F)(F)F)c3)c2)c(C)n1` [Example 259, [3-(2,6-dimethylpyridin-3-yl)phenyl]methyl [4-chloro-3-(trifluoromethyl)phenyl]carbamate] fall in the same range of IC50: 500 to 5000 nM for the first, 500 to 5000 nM for the second.

First: O=C(Nc1cccc(C(F)(F)F)n1)OCc1cccc(-n2cnnn2)c1 [Example 256, [3-(1H-tetrazol-1-yl)phenyl]methyl [6-(trifluoromethyl)pyridin-2-yl]carbamate]
Second: O=C(Nc1cc(C(F)(F)F)ccn1)OCc1cccc(-n2cnnn2)c1 [Example 257, [3-(1H-tetrazol-1-yl)phenyl]methyl [4-(trifluoromethyl)pyridin-2-yl]carbamate]
The IC50 of the first is higher: 500 to 5000 nM for the first, 50 to 500 nM for the second. The second is the more potent here.

`COc1cncc(-c2cccc(COC(=O)Nc3ccc(Cl)c(C(F)(F)F)c3)c2)c1` [Example 260, {3-[5-(methyloxy)pyridin-3-yl]phenyl}methyl [4-chloro-3-(trifluoromethyl)phenyl]carbamate] showed an IC50 of 50 to 500 nM.
